Patent US12441718B2, “Selective angiotensin II compounds” (VICORE PHARMA AB, priority 2021, dated 2025)
Where “and” joins values, the source holds several entries; their conditions need not be identical. Equal values may be shown once. Read-outs that look alike come from different tables or passages of the source.

Experiments:
CYP2D6 = biological target: T1, CYP2D6 (Homo sapiens, UniProt P10635); assay: CYP inhibition in human liver microsomes (Eurofins ITEMG232); type: in vitro ADME; conditions: probe dextromethorphan, substrate dextromethorphan, read-out: CYP2D6 Inh %
T1 construct: isoform-specific substrates incubated with human liver microsomes; tissue Eurofins ITEMG232 (protocol number); host or cells: human liver microsomes

CYP3A4 = CYP3A4 (Homo sapiens, UniProt P08684); assay: CYP inhibition in human liver microsomes (Eurofins ITEMG232), midazolam substrate; type: in vitro ADME; design: isoform-specific substrates incubated with human liver microsomes; tissue Eurofins ITEMG232 (protocol number); host or cells: human liver microsomes; conditions: human, probe midazolam, read-out: CYP3A4 midazolam Inh %
[1] = biological target: T2, human recombinant AT2 receptor (Homo sapiens, UniProt P50052); assay: Binding to AT2 receptor, radiometric scintillation assay (Eurofins ITEM26); conditions: for Ki: seven-point dose-response curve
T2 construct: purchased Eurofins ITEM26 (protocol number)
T2 sequence (P50052 1-363): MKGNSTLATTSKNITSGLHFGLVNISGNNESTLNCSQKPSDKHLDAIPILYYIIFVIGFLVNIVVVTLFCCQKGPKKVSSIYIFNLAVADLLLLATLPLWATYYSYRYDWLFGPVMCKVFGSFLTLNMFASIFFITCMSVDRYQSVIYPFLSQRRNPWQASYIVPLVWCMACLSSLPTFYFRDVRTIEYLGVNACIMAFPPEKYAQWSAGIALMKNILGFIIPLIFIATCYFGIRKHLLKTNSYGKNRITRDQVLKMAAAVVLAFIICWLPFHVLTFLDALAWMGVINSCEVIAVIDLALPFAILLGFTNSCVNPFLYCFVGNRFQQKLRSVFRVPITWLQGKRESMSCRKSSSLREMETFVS

[2] = Metabolic stability in pooled human liver microsomes; type: in vitro ADME; conditions: pooled human liver microsomes 0.5 mg/mL, 1 μM test compound, 37° C., * rows = mean of two runs; for half-life at 1 μM: human, pooled human liver microsomes
Procedure, shortened: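 Pooled human liver microsomes (0.5 mg/mL in PBS) preincubated ±1 mM NADPH at 37° C; test compound added at 10 min to 1 μM final. Samples at 0, 5, 15 and 60 min quenched in acetonitrile, parent quantified by LC-MS/MS against a standard curve (terfenadine internal standard). Initial metabolic rate calculated with and without NADPH.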

CYP2C19 = biological target: T3, CYP2C19 (Homo sapiens, UniProt P33261); assay: CYP inhibition in human liver microsomes (Eurofins ITEMG232); type: in vitro ADME; conditions: human, probe omeprazole, substrate omeprazole, read-out: CYP2C19 Inh %
T3 construct: isoform-specific substrates incubated with human liver microsomes; tissue Eurofins ITEMG232 (protocol number); host or cells: human liver microsomes

[3] = biological target: T4, human recombinant AT1 receptor (Homo sapiens, UniProt P30556); assay: Binding to AT1 receptor, radiometric scintillation assay (Eurofins ITEM24); conditions: test compounds at 1 and 10 μM, ligand 125I(sar1,Ile8)-AT-II; * rows = mean of runs
T4 construct: purchased Eurofins ITEM24 (protocol number)
T4 sequence (P30556 1-359): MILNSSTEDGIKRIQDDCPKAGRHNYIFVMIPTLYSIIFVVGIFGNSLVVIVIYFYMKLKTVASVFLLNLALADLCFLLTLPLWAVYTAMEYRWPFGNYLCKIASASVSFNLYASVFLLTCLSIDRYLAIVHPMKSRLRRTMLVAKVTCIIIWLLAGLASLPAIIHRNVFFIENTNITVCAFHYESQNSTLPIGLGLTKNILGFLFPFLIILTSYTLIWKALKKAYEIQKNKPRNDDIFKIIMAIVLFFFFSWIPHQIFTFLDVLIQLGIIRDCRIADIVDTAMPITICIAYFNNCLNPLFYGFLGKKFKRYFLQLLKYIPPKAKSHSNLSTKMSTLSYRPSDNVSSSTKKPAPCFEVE

CYP2C8 = biological target: T5, CYP2C8 (Homo sapiens, UniProt P10632); assay: CYP inhibition in human liver microsomes (Eurofins ITEMG232); type: in vitro ADME; conditions: human, probe paclitaxel and amodiaquine, substrate paclitaxel and amodiaquine, read-out: CYP2C8 Inh %
T5 construct: isoform-specific substrates incubated with human liver microsomes; tissue Eurofins ITEMG232 (protocol number); host or cells: human liver microsomes
T5 sequence (P10632 1-490): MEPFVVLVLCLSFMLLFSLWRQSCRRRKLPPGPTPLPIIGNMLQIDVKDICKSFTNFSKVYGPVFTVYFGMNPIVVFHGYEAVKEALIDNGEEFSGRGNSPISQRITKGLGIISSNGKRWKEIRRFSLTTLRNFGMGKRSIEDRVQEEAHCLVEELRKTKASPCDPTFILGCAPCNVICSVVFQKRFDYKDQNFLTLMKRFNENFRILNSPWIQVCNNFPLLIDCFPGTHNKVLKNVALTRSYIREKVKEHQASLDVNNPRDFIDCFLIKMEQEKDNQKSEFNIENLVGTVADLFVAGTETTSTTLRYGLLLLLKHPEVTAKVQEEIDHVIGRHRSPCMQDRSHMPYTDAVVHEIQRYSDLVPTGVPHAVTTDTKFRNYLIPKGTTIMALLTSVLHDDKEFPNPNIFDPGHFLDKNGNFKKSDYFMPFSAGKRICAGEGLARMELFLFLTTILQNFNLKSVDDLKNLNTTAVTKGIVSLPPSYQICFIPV

CYP1A2 = biological target: T6, CYP1A2 (Homo sapiens, UniProt P05177); assay: in vitro; type: in vitro ADME; conditions: human, microsomes, human liver microsomes, substrate phenacetin, read-out: CYP1A2 Inh %
T6 construct: isoform-specific substrates incubated with human liver microsomes; tissue Eurofins ITEMG232 (protocol number); host or cells: human liver microsomes
Procedure: The following substrates were used; CYP1A phenacetin, CYP2B36 bupropion, CYP2C8 paclitaxel and amodiaquine, CYP2C9 diclofenac, CYP2C19 omeprazole, CYP2D6 dextromethorphan, CYP3A midazolam and testosterone.
At the end of the incubation, the formation of metabolite was monitored by HPLC-MS/MS as the peak area response.

CYP2B6 = biological target: T7, CYP2B6 (Homo sapiens, UniProt P20813); assay: CYP inhibition in human liver microsomes (Eurofins ITEMG232); type: in vitro ADME; conditions: probe bupropion, substrate bupropion, read-out: CYP2B6 Inh %
T7 construct: isoform-specific substrates incubated with human liver microsomes; tissue Eurofins ITEMG232 (protocol number); host or cells: human liver microsomes
T7 sequence (P20813 1-491): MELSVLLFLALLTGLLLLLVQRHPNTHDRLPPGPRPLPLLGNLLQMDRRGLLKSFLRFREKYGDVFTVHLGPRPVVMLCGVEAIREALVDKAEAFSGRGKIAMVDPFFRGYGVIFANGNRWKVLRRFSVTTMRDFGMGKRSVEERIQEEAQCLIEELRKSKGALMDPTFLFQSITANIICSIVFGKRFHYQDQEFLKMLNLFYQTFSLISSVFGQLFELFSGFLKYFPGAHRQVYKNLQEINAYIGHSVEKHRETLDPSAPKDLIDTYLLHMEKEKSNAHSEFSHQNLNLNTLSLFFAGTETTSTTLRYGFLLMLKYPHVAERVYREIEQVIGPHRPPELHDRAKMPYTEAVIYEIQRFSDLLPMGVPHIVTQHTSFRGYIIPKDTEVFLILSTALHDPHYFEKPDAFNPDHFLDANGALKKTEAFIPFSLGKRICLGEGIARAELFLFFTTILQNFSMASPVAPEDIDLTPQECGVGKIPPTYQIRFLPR

CYP3A4&5 = assay: in vitro; conditions: human, human liver microsomes, probe testosterone;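 further: Read-out is the metabolite generated from the probe substrate, quantified as HPLC-MS/MS peak area once incubation ends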
CYP2C9 = CYP2C9 (Homo sapiens, UniProt P11712); assay: CYP inhibition in human liver microsomes (Eurofins ITEMG232); type: in vitro ADME; design: isoform-specific substrates incubated with human liver microsomes; tissue Eurofins ITEMG232 (protocol number); host or cells: human liver microsomes; conditions: human, probe diclofenac, substrate diclofenac, read-out: CYP2C9 Inh %
[4] = ligand 125I CGP 42112A, * rows = mean of runs
[5] = test compounds at 1, 10, 100 and 1000 nM, ligand 125I CGP 42112A, * rows = mean of runs, read-out: AT2 GraFit IC50
[6] = with 1 mM NADPH, read-out: T1/2, + NaDPH
[7] = without NADPH, read-out: T1/2, no NaDPH

T3 sequence (P33261 whole entry, canonical isoform): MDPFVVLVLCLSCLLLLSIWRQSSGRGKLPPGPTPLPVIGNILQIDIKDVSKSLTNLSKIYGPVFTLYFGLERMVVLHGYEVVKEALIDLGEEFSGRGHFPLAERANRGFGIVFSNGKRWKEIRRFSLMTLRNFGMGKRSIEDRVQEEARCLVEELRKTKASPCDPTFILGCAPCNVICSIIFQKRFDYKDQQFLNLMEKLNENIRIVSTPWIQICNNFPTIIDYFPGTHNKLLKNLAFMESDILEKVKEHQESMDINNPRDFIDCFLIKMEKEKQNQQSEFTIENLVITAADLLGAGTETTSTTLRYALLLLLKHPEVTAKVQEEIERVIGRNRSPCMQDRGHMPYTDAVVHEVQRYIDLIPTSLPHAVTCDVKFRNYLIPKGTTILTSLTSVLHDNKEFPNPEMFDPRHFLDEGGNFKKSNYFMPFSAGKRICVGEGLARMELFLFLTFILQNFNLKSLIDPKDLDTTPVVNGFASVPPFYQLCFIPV
CYP3A4, sequence (P08684 whole entry, canonical isoform): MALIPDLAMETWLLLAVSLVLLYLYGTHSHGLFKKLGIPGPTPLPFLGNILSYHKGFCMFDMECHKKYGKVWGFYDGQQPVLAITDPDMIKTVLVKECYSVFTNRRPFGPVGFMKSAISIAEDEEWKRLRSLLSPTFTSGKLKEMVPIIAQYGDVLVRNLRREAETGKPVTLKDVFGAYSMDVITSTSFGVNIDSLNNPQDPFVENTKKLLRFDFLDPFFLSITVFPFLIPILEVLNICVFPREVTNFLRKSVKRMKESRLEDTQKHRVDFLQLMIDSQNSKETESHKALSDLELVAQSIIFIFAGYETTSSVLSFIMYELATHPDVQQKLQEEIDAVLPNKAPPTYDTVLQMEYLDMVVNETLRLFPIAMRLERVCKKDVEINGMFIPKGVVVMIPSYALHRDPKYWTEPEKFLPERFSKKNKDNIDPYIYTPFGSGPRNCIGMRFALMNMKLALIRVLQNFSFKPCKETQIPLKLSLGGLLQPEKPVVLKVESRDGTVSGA
T1 sequence (P10635 whole entry, canonical isoform): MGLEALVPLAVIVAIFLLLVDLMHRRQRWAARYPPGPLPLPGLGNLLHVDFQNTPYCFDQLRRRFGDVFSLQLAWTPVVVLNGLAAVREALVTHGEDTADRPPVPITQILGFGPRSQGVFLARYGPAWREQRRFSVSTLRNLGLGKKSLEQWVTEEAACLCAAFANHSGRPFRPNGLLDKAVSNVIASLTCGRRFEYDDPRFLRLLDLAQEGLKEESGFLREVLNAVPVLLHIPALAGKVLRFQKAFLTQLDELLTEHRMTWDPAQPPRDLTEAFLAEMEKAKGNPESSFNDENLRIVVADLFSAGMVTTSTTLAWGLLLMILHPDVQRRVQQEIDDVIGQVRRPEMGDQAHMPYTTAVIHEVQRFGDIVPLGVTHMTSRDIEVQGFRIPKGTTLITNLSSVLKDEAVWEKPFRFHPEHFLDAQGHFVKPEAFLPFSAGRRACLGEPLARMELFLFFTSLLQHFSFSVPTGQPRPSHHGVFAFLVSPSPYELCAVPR
CYP2C9, sequence (P11712 whole entry, canonical isoform): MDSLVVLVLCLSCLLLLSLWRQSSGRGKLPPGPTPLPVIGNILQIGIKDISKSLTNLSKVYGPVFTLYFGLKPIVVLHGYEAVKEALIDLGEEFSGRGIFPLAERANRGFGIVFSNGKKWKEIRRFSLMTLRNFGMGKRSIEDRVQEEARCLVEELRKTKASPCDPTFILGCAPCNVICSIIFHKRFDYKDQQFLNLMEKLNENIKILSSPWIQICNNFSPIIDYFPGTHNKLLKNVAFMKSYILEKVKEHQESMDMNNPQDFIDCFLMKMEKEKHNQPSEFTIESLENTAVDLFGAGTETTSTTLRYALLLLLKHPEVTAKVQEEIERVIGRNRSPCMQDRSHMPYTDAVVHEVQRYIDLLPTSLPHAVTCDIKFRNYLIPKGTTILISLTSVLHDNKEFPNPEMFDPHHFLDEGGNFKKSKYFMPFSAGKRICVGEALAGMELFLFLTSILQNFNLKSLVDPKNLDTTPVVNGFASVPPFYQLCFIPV
T6 sequence (P05177 whole entry, canonical isoform): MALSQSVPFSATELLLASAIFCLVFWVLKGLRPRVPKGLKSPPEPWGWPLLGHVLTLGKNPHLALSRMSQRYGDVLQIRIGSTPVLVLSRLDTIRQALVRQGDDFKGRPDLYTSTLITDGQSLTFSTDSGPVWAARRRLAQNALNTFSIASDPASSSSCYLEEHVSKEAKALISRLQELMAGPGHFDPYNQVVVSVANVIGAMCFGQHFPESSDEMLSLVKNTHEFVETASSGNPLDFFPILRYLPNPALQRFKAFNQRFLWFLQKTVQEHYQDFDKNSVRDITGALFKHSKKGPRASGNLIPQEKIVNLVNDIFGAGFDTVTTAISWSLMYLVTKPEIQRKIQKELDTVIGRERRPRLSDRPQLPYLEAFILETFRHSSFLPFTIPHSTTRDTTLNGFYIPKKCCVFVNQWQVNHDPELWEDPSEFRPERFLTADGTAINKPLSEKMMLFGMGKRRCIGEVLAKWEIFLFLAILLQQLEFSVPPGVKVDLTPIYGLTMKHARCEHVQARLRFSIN

SMILES	inhibition at 10 µM (CYP2D6) [%]	inhibition at 10 µM (CYP3A4) [%]	Ki [1, 4] [nM]	IC50 [1, 5] [nM]	half-life at 1 μM [2, 6] [h]	half-life at 1 μM [2, 7] [h]	inhibition at 10 µM (CYP2C19) [%]	IC50 [3]	inhibition at 10 µM (CYP2C8) [%]	inhibition at 10 µM (CYP1A2) [%]	inhibition at 10 µM (CYP2B6) [%]	inhibition at 10 µM (CYP3A4&5) [%]	inhibition at 10 µM (CYP2C9) [%]	T1/2, + NaDPH ([2]; with 1 mM NADPH) [h]	T1/2, + NaDPH ([2]; with 1 mM NADPH, listed as Example 32*) [h]	IC50 ([1]; AT2 GraFit IC50, value in parentheses after <0.3, value printed in parentheses behind the bound <0.3) [nM]
CC(C)Cc1ccc(S(=O)(=O)Nc2ncc(F)cn2)c(-c2ccc(Cn3ccnc3C(C)(C)C)cc2)c1 [Example 3, 4′-((2-(tert-Butyl)-1H-imidazol-1-yl)methyl)-N-(5-fluoropyrimidin-2-yl)-5-isobutyl-[1,1′-biphenyl]-2-sulfonamide]	17.2	49.8	2.4	4.79	> 1	> 1	36.9	14300 nM	89.2	-33.8	-0.5	26.8	4	–	–	–
CC(C)Cc1ccc(S(=O)(=O)Nc2ncc(C(F)(F)F)cn2)c(-c2ccc(Cn3ccnc3C(C)(C)C)cc2)c1 [Example 4, 4′-((2-(tert-Butyl)-1H-imidazol-1-yl)methyl)-5-isobutyl-N-(5-(trifluoromethyl)pyrimidin-2-yl)-[1,1′-biphenyl]-2-sulfonamide]	21.5	33.8	6.18	12.4	> 1	> 1	62.3	6200 nM	94.3	19.5	36.2	1.5	68.3	–	–	–
CC(C)Cc1ccc(S(=O)(=O)Nc2ncccn2)c(-c2ccc(Cn3ccnc3C(C)(C)C)c(F)c2)c1 [Example 7, 4′-((2-(tert-Butyl)-1H-imidazol-1-yl)methyl)-3′-fluoro-5-isobutyl-N-(pyrimidin-2-yl)-[1,1′-biphenyl]-2-sulfonamide]	15	-12.5	1.27	2.54	0.9	> 1	41	15000 nM	78	45.9	38.9	3.7	41.3	–	–	–
CC(C)Cc1ccc(S(=O)(=O)Nc2ccsn2)c(-c2ccc(Cn3ccnc3C(C)(C)C)c(F)c2)c1 [Example 32, 4′-((2-(tert-Butyl)-1H-imidazol-1-yl)methyl)-3′-fluoro-5-isobutyl-N-(isothiazol-3-yl)-[1,1′-biphenyl]-2-sulfonamide]	–	–	0.92	1.84	0.233	> 1	–	14100 nM and 8500 nM and 11300 nM	–	–	–	–	–	0.217	0.225	–
COc1cc(NS(=O)(=O)c2ccc(CC(C)C)cc2-c2ccc(Cn3ccnc3C(C)(C)C)c(F)c2)nc(OC)n1 [Example 35, 4′-((2-(tert-Butyl)-1H-imidazol-1-yl)methyl)-N-(2,6-dimethoxypyrimidin-4-yl)-3′-fluoro-5-isobutyl-[1,1′-biphenyl]-2-sulfonamide]	–	–	59.7	119	0.133	> 1	–	30800 nM	–	–	–	–	–	–	–	–
CC(C)Cc1cc(-c2ccc(Cn3ccnc3C3CC3)c(F)c2)c(S(=O)(=O)Nc2ncccn2)s1 [Example 47, 3-(4-((2-Cyclopropyl-1H-imidazol-1-yl)methyl)-3-fluorophenyl)-5-isobutyl-N-(pyrimidin-2-yl)thiophene-2-sulfonamide]	–	–	–	< 0.3	> 1	> 1	–	4900 nM	–	–	–	–	–	–	–	0.25
CC(C)Cc1cc(-c2ccc(Cn3ccnc3C(C)C)cc2)c(S(=O)(=O)Nc2ncccn2)s1 [Example 49, 5-Isobutyl-3-(4-((2-isopropyl-1H-imidazol-1-yl)methyl)phenyl)-N-(pyrimidin-2-yl)thiophene-2-sulfonamide]	–	–	0.68	1.36	> 1	> 1	–	6700 nM	–	–	–	–	–	–	–	–
Cc1nccn1Cc1ccc(-c2cc(CC(C)C)sc2S(=O)(=O)Nc2ncccn2)cc1 [Example 50, 5-Isobutyl-3-(4-((2-methyl-1H-imidazol-1-yl)methyl)phenyl)-N-(pyrimidin-2-yl)thiophene-2-sulfonamide]	–	–	0.72	1.44	> 1	> 1	–	35100 nM	–	–	–	–	–	–	–	–
CCc1nccn1Cc1ccc(-c2cc(CC(C)C)sc2S(=O)(=O)Nc2ncccn2)cc1 [Example 51, 3-(4-((2-Ethyl-1H-imidazol-1-yl)methyl)phenyl)-5-isobutyl-N-(pyrimidin-2-yl)thiophene-2-sulfonamide]	–	–	0.64	1.28	> 1	> 1	–	13900 nM	–	–	–	–	–	–	–	–
